Assay results: patent publication US20110191897A1, “Plants Tolerant to HPPD Inhibitor Herbicides” (Bayer CropScience AG, priority 2009, published 2011)
Like-named read-outs stand apart in the source and are kept apart here.

What was measured:
[1] = target: T1, Arabidopsis thaliana HPPD (SEQ ID No. 10) (Arabidopsis thaliana, UniProt P93836); assay: Spectrophotometric HPPD activity assay in presence of HPPD inhibitors; type: biochemical; details: for inhibition at 5 µM: read-out: percentage of inhibition
T1 construct: made in house; host or cells: E. coli K-12 BL21 (pQE30-AtHPPD)
T1 sequence (P93836 with tags, fused parts or gaps): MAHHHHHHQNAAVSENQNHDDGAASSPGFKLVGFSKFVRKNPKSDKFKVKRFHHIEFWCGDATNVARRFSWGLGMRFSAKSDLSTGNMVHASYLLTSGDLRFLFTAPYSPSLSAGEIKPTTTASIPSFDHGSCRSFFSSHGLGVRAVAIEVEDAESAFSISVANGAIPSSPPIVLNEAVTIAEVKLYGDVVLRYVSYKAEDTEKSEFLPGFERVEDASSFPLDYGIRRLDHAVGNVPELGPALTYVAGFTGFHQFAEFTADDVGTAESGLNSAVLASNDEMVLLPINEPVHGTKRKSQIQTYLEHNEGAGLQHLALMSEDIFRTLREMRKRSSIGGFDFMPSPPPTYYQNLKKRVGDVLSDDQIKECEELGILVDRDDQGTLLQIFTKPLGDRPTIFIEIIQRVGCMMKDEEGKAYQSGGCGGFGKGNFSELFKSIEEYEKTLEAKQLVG

[2] = target: T1, Arabidopsis thaliana HPPD (SEQ ID No. 10); assay: HPLC assay of HPPD in vitro kinetic properties; type: biochemical; details: substrate HPP 10-400 μM, pH 7.8
Description: (§1) Km, Vmax, and kcat values for different HPPD enzyme preparations and Ki, K1=Kon, and K−1=Koff for different HPPD inhibitors were determined using a HPLC assay for measurements of HPPD activity. […] All assays were started by the addition of HPPD enzyme to the assay mixture and stopped at a series of times between 0 and 240 s by addition of 200 μl of the reaction mixture to reaction assay tubes containing 20 μl 10% perchloric acid. Precipitated protein was pelleted by a 5 minute centrifugation at 10,000 g.
For Km and Vmax value determinations the initial rates of the HPPD reaction at different substrate concentrations were determined from plots of HGA formed versus time and fitted to the Michaelis-Menten equation for unireactant enzymes using the ID Business Solutions Ltd. (www.idbs.com) XLfit software suite.

[3] = target: T2, Blepharisma japonicum HPPD (SEQ ID No. 5) (Blepharisma japonicum, UniProt A8R3H6); assay: HPLC assay of HPPD in vitro kinetic properties; type: biochemical
T2 sequence (A8R3H6 entry or part of it): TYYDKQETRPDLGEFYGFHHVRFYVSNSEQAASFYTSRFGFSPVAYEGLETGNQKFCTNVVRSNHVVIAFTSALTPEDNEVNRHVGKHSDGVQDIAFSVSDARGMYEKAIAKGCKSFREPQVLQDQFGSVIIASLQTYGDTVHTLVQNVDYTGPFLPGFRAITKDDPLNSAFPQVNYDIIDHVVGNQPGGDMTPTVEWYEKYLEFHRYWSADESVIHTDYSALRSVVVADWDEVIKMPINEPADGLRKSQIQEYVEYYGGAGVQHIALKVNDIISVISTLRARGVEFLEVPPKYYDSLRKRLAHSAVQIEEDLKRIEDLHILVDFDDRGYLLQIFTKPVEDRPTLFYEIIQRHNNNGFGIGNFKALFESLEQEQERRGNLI
Description: as §1, with “g. […] A standard set of concentrations of HGA were used to provide a standard curve in order to calibrate the 292 nm absorbance of the HGA peak versus HGA concentration.” for “g.”
For Km and Vmax value determinations the initial rates of the HPPD reaction at different substrate concentrations were determined from plots of HGA formed versus time and fitted to the Michaelis-Menten equation for unireactant enzymes using the ID Business Solutions Ltd. (www.idbs.com) XLfit software suite. For the determination of Ki, K1=Kon, and Ki=Koff values the time-courses of the HPPD reaction at different inhibitor concentrations were fitted to the equations for Mechanism A, competitive inhibition, for tight-binding inhibitors (Cha, S. (1975) Tight-binding inhibitors—I. Kinetic behaviour. Biochemical Pharmacology 24, 2177-2185) using the ID Business Solutions Ltd. XLfit software suite

[4] = target: T2, Blepharisma japonicum HPPD (SEQ ID No. 5); assay: biochemical; details: for inhibition at 5 µM: read-out: percentage of inhibition
[5] = test system: tobacco plants with FMP37t-h, PAT and 2mEPSPS (pFCO112); assay: Glasshouse trial of tobacco with three tolerance genes; type: in vivo, Nicotiana tobacum; details: 9 DAT
Description: A binary vector for tobacco transformation is, for example, constructed with the CaMV35 promoter driving the expression of the gene FMP37t-h (SEQ ID No. 15), with a codon usage optimized for the expression in dicotyledoneous plants and at its 5′ extremity was added a sequence coding for an OTP, and further upstream a sequence TEV (Tobacco etch virus) to improve the stability of the mRNA in plants followed by the CaMV35S terminator. The nucleotide sequence of the gene FMP37t-h is given in SEQ ID No. 15. Additionally, the transformation vector also contains a PAT gene cassette in which the gene is driven by a CaVM35S promoter and followed by a CaMV35S terminator for glufosinate based selection during the transformation process and a 2mEPSPS gene cassette in which the gene is driven by an histone promoter from Arabidopsis to confer tolerance to the herbicide glyphosate to the transformed plants (see FIG. 3 H). The binary vector was called pFCO112. The above vector was used to transform leaf disks obtained from Nicotiana tobacum plants, according to Example 3.
Transgenic tobacco plants were transferred to the greenhouse and treated with glyphosate at a rate of 1121 g Al/ha. Seeds were produced from such tolerant tobacco plants and harvested. These seeds were put on soil to germinate in the glasshouse. Three to four weeks later, 50 plantlets per event were transferred to single pots. Two weeks later, plants of a size 4-6 cm were sprayed either with:
[…] […] Non-transgenic tobacco plants were completely killed by treatment using one or more of the above herbicides.

[6] = test system: leaf disks of tobacco plants containing HPPD SEQ ID No. 7 (Blepharisma japonicum); assay: Leaf disk regeneration on media with HPPD inhibitors; type: cell-based, Nicotiana tabacum; parameters: key to the marks not given beside the values; details: 10^−6 M, 6 weeks
Description: (§2) At the end of the experiments the level of regeneration was evaluated as followed:
(§3) “−” means that the leaf disks looked the same as leaf disk from wild type tobacco plants on media supplemented with the inhibitor mentioned above. “++++” means that the leaf disks looked like the leaf disks from the wild type tobacco plants on media without inhibitor. “+”, “++”, and “+++” indicate regenerated leaf disks were heavily (+), medium (++) and less (+++) affected by the presence of the inhibitors.

[7] = test system: leaf disks of tobacco plants containing HPPD SEQ ID No. 11 (Arabidopsis thaliana); assay: as above; type: cell-based, Nicotiana tabacum; details: 10^−6 M, 6 weeks
Description: as §2, §3

wild type tobacco plants = assay: Glasshouse response to bicyclopyrone, injury classes; type: in vivo, Nicotiana tabacum; details: WT, 100 g Al/ha, 7 DAT
Excerpt: (§4) Seeds of wild type tobacco plants and T1 tobacco plants carrying the gene from Blepharisma japonicum FMP37e coding for HPPD were sown on MS media (Murashige and Skoog […]) supplemented with […] kanamycin. After 4 weeks, rooted green plantlets were transferred to soil and grown for 3 weeks in the glasshouse as described above then sprayed with a mixture containing bicyclopyrone (100 g Al/ha), ammonium sulfate and methyl ester raps oil. The plants were classified in two categories based on the phenotype developed in response to the herbicide seven days after the treatment. […] In this case, only plants containing at least one T-DNA were exposed to the herbicidal treatment.

[8] = test system: T1 tobacco plants carrying FMP37e (kanamycin selected); assay: as above; type: in vivo, Nicotiana tabacum; details: 7 DAT
Excerpt: as §4

[9] = 5.0 × 10^−6M inhibitor (Table 4)
[10] = substrate HPP 10-400 μM, pH 7.8

**Q.** With `CS(=O)(=O)c1ccc(C(=O)C2C(=O)CCCC2=O)c(Cl)c1COCC1CCCO1` (stereo not drawn) [Tefuryltrione, 2-[2-chloro-4-(methylsulfonyl)-3-[[(tetrahydro-2-furanyl)methoxy]methyl]benzoyl]-1,3-cyclohexanedione] as the compound, how does the inhibition at 5 µM [1, 9] read?
**A.** 100%

**Q.** With `O=C(O)C(=O)Cc1ccc(O)cc1` [HPP, para-hydroxyphenylpyruvate] as the compound, how does the Km [2] read?
**A.** 6.3 µM

**Q.** And the Vmax [2]?
**A.** 1.2 µM

**Q.** What about the Km [3, 10] of the same compound?
**A.** 83 µM

**Q.** What about the Vmax [3, 10] of the same compound?
**A.** 0.1 µM

**Q.** `Cc1nn(C)c(O)c1C(=O)c1ccc(C(F)(F)F)cc1S(C)(=O)=O` [Pyrasulfotole] was tested. Which pI50 ([1]; 2 mM HPP, 3 minutes incubation) did it give?
**A.** 5.4

**Q.** What about the percentage of inhibition [1, 9] of the same compound?
**A.** 69%

**Q.** What about the pI50 ([4]; 2 mM HPP, 3 minutes incubation) of the same compound?
**A.** 4.4

**Q.** And the percentage of inhibition [4, 9]?
**A.** 0%

**Q.** `O=C(O)CNCP(=O)(O)O` [Glyphosate] was tested. Which “number of plants in Class I (no injuries)” value (from here on “number … (no injuries)”) ([5]; line 634, 1121 g AI/ha) did it give?
**A.** 10

**Q.** And the “number of plants in Class II (injury: 10-40%)” value (“number … (injury: 10-40%)” for short) ([5]; line 634, 1121 g AI/ha)?
**A.** 0

**Q.** And the “number of plants in Class III (injury: 41-100%)” value (“number … (injury: 41-100%)” for short) ([5]; line 634, 1121 g AI/ha)?
**A.** 0

**Q.** What about the “number … (no injuries)” value ([5]; line 713, 1121 g AI/ha) of the same compound?
**A.** 10

**Q.** And the “number … (injury: 10-40%)” value ([5]; line 713, 1121 g AI/ha)?
**A.** 0

**Q.** What about the “number … (injury: 41-100%)” value ([5]; line 713, 1121 g AI/ha) of the same compound?
**A.** 0

**Q.** What does the source list for `CS(=O)(=O)c1ccc(C(=O)C2C(=O)CCCC2=O)c(Cl)c1` [Sulcotrione, 2-[2-chloro-4-(methylsulfonyl)benzoyl]-1,3-cyclohexanedione]?
**A.** IC50 [1]: < 2.51 µM; inhibition at 5 µM [1]: 74%

**Q.** Which results are given for `CS(=O)(=O)c1ccc(C(=O)C2C(=O)CCCC2=O)c([N+](=O)[O-])c1` [Mesotrione, 2-[4-(methylsulfonyl)-2-nitrobenzoyl]-1,3-cyclohexanedione]?
**A.** level of regeneration of leaf disks [6]: ++++; IC50 [1]: < 2.51 µM; inhibition at 5 µM [1, 9]: 86%; level of regeneration of leaf disks [7]: −

**Q.** `Cc1ccc(C(=O)COc2c(C(=O)c3ccc(Cl)c(C)c3Cl)c(C)nn2C)cc1` [Benzofenap] was tested. Which IC50 ([1]; read-out: pI50 (converted)) did it give?
**A.** < 2.51 µM

**Q.** What about the inhibition at 5 µM [1] of the same compound?
**A.** 90%

**Q.** And the IC50 ([4]; read-out: pI50 (converted))?
**A.** 3.16 µM

**Q.** What about the inhibition at 5 µM [4] of the same compound?
**A.** 85%

**Q.** For `CP(=O)(O)CCC(N)C(=O)O` (stereo not drawn) [Glufosinate-ammonium], which “number … (no injuries)” value ([5]; line 634, 1000 g AI/ha) is on record?
**A.** 10

**Q.** What about the “number … (injury: 10-40%)” value ([5]; line 634, 1000 g AI/ha) of the same compound?
**A.** 0

**Q.** And the “number … (injury: 41-100%)” value ([5]; line 634, 1000 g AI/ha)?
**A.** 0

**Q.** What about the “number … (no injuries)” value ([5]; line 713, 1000 g AI/ha) of the same compound?
**A.** 10

**Q.** And the “number … (injury: 10-40%)” value ([5]; line 713, 1000 g AI/ha)?
**A.** 0

**Q.** And the “number … (injury: 41-100%)” value ([5]; line 713, 1000 g AI/ha)?
**A.** 0

**Q.** `Cc1ccc(S(=O)(=O)Oc2c(C(=O)c3ccc(Cl)cc3Cl)c(C)nn2C)cc1` [Pyrazolate] was tested. Which inhibition at 5 µM [1, 9] did it give?
**A.** 61%

**Q.** And the IC50 ([1]; read-out: pI50 (converted))?
**A.** 3.98 µM

**Q.** And the IC50 [4]?
**A.** 20 µM

**Q.** And the inhibition at 5 µM [4]?
**A.** 0%

**Q.** Which “level of regeneration of leaf disks” value [6] does the source give for `COCCOCc1nc(C(F)(F)F)ccc1C(=O)C1=C(O)C2CCC(C2)C1=O` (stereo not drawn) [Bicyclopyrone, 4-hydroxy-3-[[2-[(2-methoxyethoxy)methyl]-6-(trifluoromethyl)-3-pyridinyl]carbonyl]bicyclo[3.2.1]oct-3-en-2-one] here?
**A.** ++++

**Q.** What about the “number of plants in Class I (injury: 0-30%)” value (shortened to “number … (injury: 0-30%)”) (wild type tobacco plants) of the same compound?
**A.** 0

**Q.** What about the “number of plants in Class II (injury: 31-100%)” value (“number … (injury: 31-100%)” below) (wild type tobacco plants) of the same compound?
**A.** 12

**Q.** And the “% of tolerant plant” value ([8]; line 113, 100 g Al/ha)?
**A.** 56%

**Q.** And the “number … (injury: 0-30%)” value ([8]; line 113, 100 g Al/ha)?
**A.** 60

**Q.** And the “number … (injury: 31-100%)” value ([8]; line 113, 100 g Al/ha)?
**A.** 78

**Q.** What about the “% of tolerant plant” value ([8]; line 207, 100 g Al/ha) of the same compound?
**A.** >60%

**Q.** And the “number … (injury: 0-30%)” value ([8]; line 207, 100 g Al/ha)?
**A.** 65

**Q.** What about the “number … (injury: 31-100%)” value ([8]; line 207, 100 g Al/ha) of the same compound?
**A.** >100

**Q.** What about the “% of tolerant plant” value ([8]; line 208, 100 g Al/ha) of the same compound?
**A.** 67%

**Q.** And the “number … (injury: 0-30%)” value ([8]; line 208, 100 g Al/ha)?
**A.** 44

**Q.** And the “number … (injury: 31-100%)” value ([8]; line 208, 100 g Al/ha)?
**A.** 90

**Q.** What about the IC50 [1] of the same compound?
**A.** 6.31 µM

**Q.** What about the inhibition at 5 µM [1] of the same compound?
**A.** 29%

**Q.** What about the “level of regeneration of leaf disks” value [7] of the same compound?
**A.** −

**Q.** And the IC50 ([4]; read-out: pI50 (converted))?
**A.** 200 µM

**Q.** And the inhibition at 5 µM [4]?
**A.** 0%

**Q.** How did the inhibition at 5 µM [1, 9] turn out when `CS(=O)(=O)c1cc(C(F)(F)F)ccc1C(=O)C(C#N)C(=O)C1CC1` (stereo not drawn) [Diketonitrile, 2-cyano-3-cyclopropyl-1-(2-methylsulphonyl-4-trifluoromethylphenyl)-propane-1,3-dione] was run?
**A.** 87%

**Q.** What about the Ki [3] of the same compound?
**A.** 6.6 µM
